What was measured:
L1210 = assay: Cytotoxicity against mouse L1210 cells after 65 hrs by MTS/PES microculture tetrazolium assay; format: functional, cell-based; details: L1210, 65 h
[1] = Cytotoxicity against african green monkey Vero cells; format: cell-based; details: chlorocebus sabaeus
HL-60 = assay: Anticancer activity against human HL60 cells; format: functional, cell-based
[2] = Cytotoxicity against human HeLa cells; format: cell-based

Row | IC50 (HL-60) [µM] | SMILES | IC50 (L1210) [µM] | CC50 [1] [µM] | CC50 [2] [µM]
1 | – | O=C(NO)N/N=C/C1CCCCC1 | 21.2 | – | –
2 | > 100 | Cc1ccccc1/C=N/NC(=N)NO | – | > 100 | > 100
3 | > 100 | COc1ccc(/C=N/NC(=N)NO)cc1 | – | > 100 | > 100
4 | – | N/C(=N\O)N/N=C/c1cccs1 | 34.1 | – | –
5 | – | Cc1ccsc1/C=N/N=C(/N)NO | 33.2 | – | –
6 | – | N=C(NO)N/N=C1\C(=O)Nc2ccccc21 | 48.4 | – | –
7 | – | O=C(NO)N/N=C/C1CC2C=CC1C2 (configuration not stated) | 10.6 | – | –
8 | – | COc1cccc(/C=N/NC(=N)NO)c1 | 16 | – | –
9 | > 100 | COc1ccccc1/C=N/N=C(\N)NO | – | > 100 | > 100
10 | 95 | N/C(=N\O)N/N=C/c1ccccc1O | – | > 100 | > 100
11 | – | O=C(NO)N/N=C\C1=CCc2c(Cl)cc(Cl)cc2C1=O | 28.2 | – | –
12 | – | Cc1cccc(/C=N/N=C(\N)NO)n1 | 42.1 | – | –
13 | 67 | Cc1ccc(/C=N/NC(=N)NO)cc1 | – | > 100 | > 100
14 | – | CCCCOc1ccc(/C=N/NC(=N)NO)cc1 | 8.53 | – | –
15 | > 100 | N=C(NO)N/N=C/c1ccc(O)cc1 | – | > 100 | > 100
16 | – | N/C(=N\O)N/N=C/c1cccc(I)c1 | 12.5 | – | –

Row | IC50 (HL-60) [µM] | SMILES | IC50 (L1210) [µM] | CC50 [1] [µM] | CC50 [2] [µM]
17 | 11 | N=C(NO)N/N=C/c1c2ccccc2cc2ccccc12 | – | > 100 | > 100
18 | – | N/C(=N/N=C/c1ccccn1)NO | 10.9 | – | –
19 | – | N/C(=N\O)N/N=C/c1cccc(C(F)(F)F)c1 | 15.1 | – | –
20 | – | CCCCCCOc1ccc(/C=N/NC(=N)NO)cc1 | 7.8 | – | –
21 | – | N=C(NN)NO | 126 | – | –
22 | > 100 | N=C(NO)N/N=C/c1ccc(Cl)cc1 | – | > 100 | > 100
23 | 62 | N=C(NO)N/N=C/c1ccccc1 | – | > 100 | > 100
24 | > 100 | CN(C)c1ccc(/C=N/NC(=N)NO)cc1 | – | > 100 | > 100
25 | – | Cc1ccn(C)c1/C=N/NC(=N)NO | 2.7 | – | –
26 | – | N=C(NO)N/N=C/c1cc2ccccc2cn1 | 3.3 | – | –
27 | > 100 | COc1ccc(/C=N/NC(=N)NO)cc1O | – | > 100 | > 100
28 | 60 | N=C(NO)N/N=C/c1ccccc1Cl | – | > 100 | > 100
29 | > 100 | N=C(NO)N/N=C/c1ccco1 | – | > 100 | > 100
30 | – | CC(C)c1ccc2c(c1)C(=O)C(/C=N\NC(=O)NO)=CC2 | 32.2 | – | –
31 | – | CS(=O)(=O)Oc1ccc(/C=N/NC(=N)NO)cc1 | 14.8 | – | –
